Converted amounts (≈) assume the structure as drawn. Read-outs that look alike come from different tables or passages of the source.
Legend:
Strep.uberis = test: Minimal bactericidal activity (MBC) in milk, field isolates; format: cell-based; details: Streptococcus uberis, in milk at pH 7.2 - 7.4
Excerpt: (§1) The activity of some of said nitrofuryl quinolines derivatives against Strep.uberis and Stap.Aureus in milk has been compared with the activity of some of the compounds so far utilised in the treatment of bovine mastitis. The results are shown in Table I. (The nitrofuryl quinoline derivatives have general formula [drawing 1] the meaning of R, A, R', B, Y, X and Z being given in the Table. R1 =O whenever indicated then the N-oxide is concerned; NF stands for nitrofuryl)
(§2) Minimal Bactericidal/Activity (MBC) of representative Nitrofuryl
(§3) in mcg/ml in milk at pH 7.2 - 7.4. Versus Standards (Field

Staph.Aureus = test: as above; format: cell-based; details: Staphylococcus aureus, in milk at pH 7.2 - 7.4
Excerpt: as §1, §2, §3

[1] = test system: Strep.uberis and Stap.Aureus; test: Activity against mastitis bacteria in presence of milk (Table I, summary in words); format: cell-based
Excerpt: as §1

[2] = Residue of active compound in milk of the cow; format: in vivo; details: bovine, milk, 500 mg in 7 ml P.E.G. base
Experimental: Said four compounds were then tested for the length of time they could be detected in the milk of the cow. For this purpose 500 mg in 7 ml of a polyethylene glycol (P.E.G.) base of each compound were administered to several cows and the residue of active compound in milk were measured in mcg/ml after 24, 32 and 40 hours respectively.

udder = test: Number of leucocytes (somatic cells) in milk / irritation of the udder; format: in vivo, cow; details: for number of leucocytes (sematic cells) in milk, 40 hrs.: 40 hrs after 500 mg in 7 ml P.E.G. base; for number of leucocytes (sematic cells) in milk, 48 hrs.: 48 hrs after 500 mg in 7 ml P.E.G. base; for number of leucocytes (sematic cells) in milk, 56 hrs.: 56 hrs after 500 mg in 7 ml P.E.G. base; for number of leucocytes (sematic cells) in milk, before: before administration (baseline)
Experimental: Thereafter 500 mg of each of said compounds in 7 ml of a P.E.G. base and also 7 ml of said base above were administered to several cows and the number of leucocytes (sematic cells) in 10^6 per ml of milk were measured before administration and 40, 48 and 56 hours thereafter. The numbers of leucocytes present indicate the degree of irritation of the udder.

[3] = field isolate 60B, read-out: Minimal Bactericidal Activity (MBC), Strep.uberis 60B
[4] = field isolate 127A, read-out: Minimal Bactericidal Activity (MBC), Strep.uberis 127A
[5] = field isolate 2337, read-out: Minimal Bactericidal Activity (MBC), Staph.Aureus 2337
[6] = field isolate 2372, read-out: Minimal Bactericidal Activity (MBC), Staph.Aureus 2372

Row | concentration at 24 h [2] | concentration at 32 h [2] | SMILES | MBC (Strep.uberis; [3]) | MBC (Strep.uberis; [4]) | MBC (Staph.Aureus; [5]) | MBC (Staph.Aureus; [6]) | activity in presence of milk (in words) [1] | number of leucocytes (sematic cells) in milk, 40 hrs. (udder) | number of leucocytes (sematic cells) in milk, 48 hrs. (udder) | number of leucocytes (sematic cells) in milk, 56 hrs. (udder) | number of leucocytes (sematic cells) in milk, before (udder)
1 | 12000 ng/mL | 5000 ng/mL | CCOc1ccc2c(-c3ccc([N+](=O)[O-])o3)cc(C(=O)O)[n+]([O-])c2c1 [Compound 26] | 0.03 µg/mL (≈ 0.0871 µM) | 1 µg/mL (≈ 2.9 µM) | 1 µg/mL (≈ 2.9 µM) | 1 µg/mL (≈ 2.9 µM) | significant activity in milk | > 7.5 10^6 per ml | 3 10^6 per ml | 2.65 10^6 per ml | 0.22 10^6 per ml
2 | 26500 ng/mL | 5000 ng/mL | COc1ccc2c(-c3ccc([N+](=O)[O-])o3)cc[n+]([O-])c2c1 [Compound 19] | 0.12 µg/mL (≈ 0.419 µM) | 0.5 µg/mL (≈ 1.75 µM) | 0.5 µg/mL (≈ 1.75 µM) | 0.5 µg/mL (≈ 1.75 µM) | significant activity in milk | 5 10^6 per ml | 3 10^6 per ml | 2 10^6 per ml | 0.60 10^6 per ml
3 | 20000 ng/mL | – | Cc1cc(-c2ccc([N+](=O)[O-])o2)c2ccc(O)cc2[n+]1[O-] [Compound 22] | 0.12 µg/mL (≈ 0.419 µM) | 0.5 µg/mL (≈ 1.75 µM) | 1 µg/mL (≈ 3.49 µM) | 0.5 µg/mL (≈ 1.75 µM) | significant activity in milk | 5 10^6 per ml | 5 10^6 per ml | 3.15 10^6 per ml | 0.28 10^6 per ml
4 | – | – | COc1ccc2c(-c3ccc([N+](=O)[O-])o3)cc(C)nc2c1 [Compound 9] | 10 µg/mL (≈ 35.2 µM) | 5 µg/mL (≈ 17.6 µM) | 5 µg/mL (≈ 17.6 µM) | 5 µg/mL (≈ 17.6 µM) | – | – | – | – | –
5 | – | – | O=[N+]([O-])c1ccc(-c2ccc3ccccc3n2)o1 [Compound 3] | > 10 µg/mL | > 10 µg/mL | > 10 µg/mL | > 10 µg/mL | – | – | – | – | –
6 | – | – | Cc1ccc2c(c1)c(-c1ccc([N+](=O)[O-])o1)cc(C)[n+]2[O-] [Compound 29] | 5 µg/mL (≈ 17.6 µM) | 5 µg/mL (≈ 17.6 µM) | 5 µg/mL (≈ 17.6 µM) | 5 µg/mL (≈ 17.6 µM) | – | – | – | – | –
7 | – | – | CCc1cc(-c2ccc([N+](=O)[O-])o2)c2ccccc2[n+]1[O-] [Compound 30] | 5 µg/mL (≈ 17.6 µM) | > 10 µg/mL | 5 µg/mL (≈ 17.6 µM) | 10 µg/mL (≈ 35.2 µM) | – | – | – | – | –
